“And” between values parts separate entries of the source, which are not always exact repeats. Equal values may be shown once. Toxic doses and inconclusive results are not listed. The calls were made as follows: active = survival T/C of 150% or more; inactive = T/C below 125% in these data.
Tested on: P388 leukemia ip, CD2F1 mice, survival T/C
Assay: NCI In Vivo Anticancer Drug Screen. Data for tumor model P388 Leukemia (intraperitoneal) in CD2F1 (CDF1) mice
Conditions: endpoint: median survival time, higher = longer survival
In short: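 Mice carrying the transplanted tumor received test compound or vehicle. Survival was recorded in each group, and the value is the treated-group measurement divided by that of the vehicle-treated control group.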

[1] = dose: 25.0 mg/kg/injection, schedule: Q01DX009 (ip), vehicle: saline with Tween-80
[2] = dose: 12.5 mg/kg/injection, schedule: Q01DX009 (ip), vehicle: saline with Tween-80
[3] = dose: 50.0 mg/kg/injection, schedule: Q01DX009 (ip), vehicle: saline with Tween-80
[4] = dose: 50.0 mg/kg/injection, schedule: Q01DX009 (ip), vehicle: saline
[5] = dose: 100.0 mg/kg/injection, schedule: Q01DX009 (ip), vehicle: saline
[6] = dose: 200.0 mg/kg/injection, schedule: Q01DX009 (ip), vehicle: saline
[7] = dose: 50.0 mg/kg/injection, schedule: Q04DX003 (ip), vehicle: saline
[8] = dose: 100.0 mg/kg/injection, schedule: Q04DX003 (ip), vehicle: saline
[9] = dose: 100.0 mg/kg/injection, schedule: Q01DX005 (ip), vehicle: saline with Tween-80
[10] = dose: 100.0 mg/kg/injection, schedule: Q01DX009 (ip), vehicle: saline with Tween-80
[11] = dose: 200.0 mg/kg/injection, schedule: Q01DX009 (ip), vehicle: saline with Tween-80

Measured: T/C

CN(C)c1ccc(/C=C/c2ccnc3ccc(Cl)cc23)cc1
inactive: [1] 118 % of control

CN(c1ccccc1)c1ccc([N+](=O)[O-])c2no[n+]([O-])c12
inactive: dose: 7.5 mg/kg/injection, schedule: Q01DX009 (ip), vehicle: suspension in saline 92 % of control and 97 % of control | dose: 15.0 mg/kg/injection, schedule: Q01DX009 (ip), vehicle: suspension in saline 92 % of control and 96 % of control | dose: 30.0 mg/kg/injection, schedule: Q01DX009 (ip), vehicle: suspension in saline 103 % of control and 90 % of control | dose: 60.0 mg/kg/injection, schedule: Q01DX009 (ip), vehicle: suspension in saline 110 % of control and 115 % of control

COc1ccc(CSC(=S)Nc2cccc(S(F)(F)(F)(F)F)c2)cc1
inactive: [2] 97 % of control | dose: 12.5 mg/kg/injection, schedule: Q01DX009 (ip), vehicle: saline 104 % of control | [1] 100 % of control | dose: 25.0 mg/kg/injection, schedule: Q01DX009 (ip), vehicle: saline 98 % of control | [3] 100 % of control | [4] 100 % of control and 119 % of control | [5] 116 % of control | [6] 118 % of control

Cc1ccc2c3c1CCCN3CCC2
inactive: [7] 112 % of control | [8] 112 % of control

CCC1(c2ccccc2)OCC(C2CCCCN2)O1 (configuration not stated)
inactive: dose: 50.0 mg/kg/injection, schedule: Q01DX009 (ip), vehicle: Klucel (hydroxypropylcellulose) (HPC) 95 % of control | dose: 100.0 mg/kg/injection, schedule: Q01DX009 (ip), vehicle: Klucel (hydroxypropylcellulose) (HPC) 95 % of control

NC(N)=N/N=C/c1nccc2ccccc12
inactive: dose: 25.0 mg/kg/injection, schedule: Q01DX005 (ip), vehicle: saline with Tween-80 99 % of control and 103 % of control | dose: 50.0 mg/kg/injection, schedule: Q01DX005 (ip), vehicle: saline with Tween-80 98 % of control and 99 % of control and 102 % of control | [9] 105 % of control and 120 % of control

CCN1CCCC(Nc2cc(C)nc(Nc3nc4cc(Cl)c(Cl)cc4[nH]3)n2)C1 (configuration not stated)
inactive: dose: 12.5 mg/kg/injection, schedule: Q01DX009 (ip), vehicle: Klucel (hydroxypropylcellulose) (HPC) 90 % of control

CN1C(c2ccccc2)C2CSCC(C1c1ccccc1)C21NC(=O)NC1=O (configuration not stated)
inactive: dose: 100.0 mg/kg/injection, schedule: Q01DX001 (ip), vehicle: saline with Tween-80 104 % of control | dose: 200.0 mg/kg/injection, schedule: Q01DX001 (ip), vehicle: saline with Tween-80 100 % of control | dose: 400.0 mg/kg/injection, schedule: Q01DX001 (ip), vehicle: saline with Tween-80 97 % of control

Oc1ccc(N=Nc2nccs2)c(O)c1
inactive: [3] 96 % of control | [10] 93 % of control | [11] 99 % of control

CN(C)N1C(=O)C(C(=O)Nc2cccc3ccccc23)SC1=S (configuration not stated)
inactive: dose: 0.75 mg/kg/injection, schedule: Q01DX005 (ip), vehicle: saline with Tween-80 96 % of control | dose: 1.5 mg/kg/injection, schedule: Q01DX005 (ip), vehicle: saline with Tween-80 88 % of control | dose: 3.0 mg/kg/injection, schedule: Q01DX005 (ip), vehicle: saline with Tween-80 91 % of control | [9] 99 % of control | dose: 200.0 mg/kg/injection, schedule: Q01DX005 (ip), vehicle: saline with Tween-80 103 % of control

CSCc1ccc(C(N)C(=O)O)cc1 (configuration not stated)
inactive: dose: 50.0 mg/kg/injection, schedule: Q04DX002 (ip), vehicle: saline with Tween-80 99 % of control | dose: 100.0 mg/kg/injection, schedule: Q04DX002 (ip), vehicle: saline with Tween-80 96 % of control | dose: 200.0 mg/kg/injection, schedule: Q04DX002 (ip), vehicle: saline with Tween-80 99 % of control

O=C1C(Cl)=C(c2ccccc2)C(=O)C(Cl)=C1c1ccccc1
inactive: [2] 100 % of control | [1] 109 % of control | [3] 109 % of control

O=C(O)CC(O)CCCCCO (configuration not stated)
inactive: [3] 110 % of control | [10] 110 % of control | [8] 106 % of control | [11] 100 % of control | dose: 200.0 mg/kg/injection, schedule: Q04DX003 (ip), vehicle: saline 113 % of control | dose: 400.0 mg/kg/injection, schedule: Q04DX003 (ip), vehicle: saline 100 % of control

Clc1ccc(CN2COc3c(cc(Cl)c4cccnc34)C2)cc1Cl
inactive: dose: 100.0 mg/kg/injection, schedule: Q04DX003 (ip), vehicle: Klucel (hydroxypropylcellulose) (HPC) 97 % of control | dose: 200.0 mg/kg/injection, schedule: Q04DX003 (ip), vehicle: Klucel (hydroxypropylcellulose) (HPC) 97 % of control | dose: 400.0 mg/kg/injection, schedule: Q04DX003 (ip), vehicle: Klucel (hydroxypropylcellulose) (HPC) 89 % of control

C[C@@H]1CC[C@@]2(OC1)O[C@H]1C[C@H]3[C@@H]4CC(=O)C5=CC(=O)CC[C@]5(C)[C@H]4CC[C@]3(C)[C@H]1[C@@H]2C
inactive: dose: 2.25 mg/kg/injection, schedule: Q01DX005 (ip), vehicle: Klucel (hydroxypropylcellulose) (HPC) 101 % of control | dose: 4.5 mg/kg/injection, schedule: Q01DX005 (ip), vehicle: Klucel (hydroxypropylcellulose) (HPC) 100 % of control | dose: 9.0 mg/kg/injection, schedule: Q01DX005 (ip), vehicle: Klucel (hydroxypropylcellulose) (HPC) 97 % of control | dose: 18.0 mg/kg/injection, schedule: Q01DX005 (ip), vehicle: Klucel (hydroxypropylcellulose) (HPC) 89 % of control | dose: 36.0 mg/kg/injection, schedule: Q01DX005 (ip), vehicle: Klucel (hydroxypropylcellulose) (HPC) 88 % of control

Cc1[nH]c2ccc(N(C)C)cc2c(=O)c1CN(C)Cc1c(C)[nH]c2ccc(N(C)C)cc2c1=O
inactive: dose: 60.0 mg/kg/injection, schedule: Q01DX005 (ip), vehicle: saline with Tween-80 99 % of control | dose: 120.0 mg/kg/injection, schedule: Q01DX005 (ip), vehicle: saline with Tween-80 100 % of control | dose: 240.0 mg/kg/injection, schedule: Q01DX005 (ip), vehicle: saline with Tween-80 100 % of control

O=C1c2ccccc2C(=O)N1CC#CC[N+]1([O-])CCc2ccccc2C1 (configuration not stated)
inactive: dose: 12.5 mg/kg/injection, schedule: Q01DX005 (ip), vehicle: Klucel (hydroxypropylcellulose) (HPC) 103 % of control | dose: 25.0 mg/kg/injection, schedule: Q01DX005 (ip), vehicle: Klucel (hydroxypropylcellulose) (HPC) 102 % of control | dose: 50.0 mg/kg/injection, schedule: Q01DX005 (ip), vehicle: Klucel (hydroxypropylcellulose) (HPC) 103 % of control | dose: 100.0 mg/kg/injection, schedule: Q01DX005 (ip), vehicle: Klucel (hydroxypropylcellulose) (HPC) 110 % of control

CCOc1nc(N)nc(C)c1N=Nc1ccc(C)cc1
inactive: dose: 60.0 mg/kg/injection, schedule: Q01DX005 (ip), vehicle: Klucel + Tween-80 110 % of control | dose: 120.0 mg/kg/injection, schedule: Q01DX005 (ip), vehicle: Klucel + Tween-80 116 % of control | dose: 240.0 mg/kg/injection, schedule: Q01DX005 (ip), vehicle: Klucel + Tween-80 113 % of control

C=CCNCCN1CCN(CCCN2c3ccccc3Sc3ccc(C(F)(F)F)cc32)CC1
inactive: dose: 25.0 mg/kg/injection, schedule: Q04DX003 (ip), vehicle: saline 91 % of control | [7] 119 % of control and 97 % of control

CC(=O)OC1CCC2C3C=CC4=C/C(=N/NC(N)=S)CCC4(C)C3CCC12C (configuration not stated)
inactive: dose: 100.0 mg/kg/injection, schedule: Q01DX001 (ip), vehicle: saline 100 % of control | dose: 200.0 mg/kg/injection, schedule: Q01DX001 (ip), vehicle: saline 98 % of control | dose: 400.0 mg/kg/injection, schedule: Q01DX001 (ip), vehicle: saline 99 % of control

COc1cc(C(C)(C)C)c2oc3c(c2c1)C(=O)C(C(C)(C)C)=CC3(OC)OC
inactive: [4] 104 % of control | [5] 100 % of control | [6] 97 % of control

CCCCCCC1([N+](=O)[O-])CN(C)CC2CCCCN2C1 (configuration not stated)
inactive: dose: 100.0 mg/kg/injection, schedule: Q04DX002 (ip), vehicle: saline 109 % of control | dose: 200.0 mg/kg/injection, schedule: Q04DX002 (ip), vehicle: saline 97 % of control
